Measured values as given in the supplement of paper PMC8967900.

What was measured:
Test in all cases: selective drug sensitivity score (sDSS, relative to normal bone marrow) (sDSS (score)); higher = more potent and effective on the cell line relative to normal bone marrow cells
Settings in all cases: 72 h
380 = system: 380
697 = system: 697
ALL-PO = system: ALL-PO
COG-LL-317 = system: COG-LL-317
COG-LL-332h = system: COG-LL-332h
DND-41 = system: DND-41
HAL-01 = system: HAL-01
HPB-ALL = system: HPB-ALL
JURKAT = system: JURKAT
KASUMI-10 = system: KASUMI-10
KASUMI-2 = system: KASUMI-2
MHH-CALL-3 = system: MHH-CALL-3
MHH-CALL-4 = system: MHH-CALL-4
MN-60 = system: MN-60
MOLT-14 = system: MOLT-14
MOLT-4 = system: MOLT-4
NALM-6 = system: NALM-6
P30-OHKUBO = system: P30-OHKUBO
SUP-B15 = system: SUP-B15
TANOUE = system: TANOUE
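Note: ALL cell lines in 384-well plates, five doses spanning 10,000-fold, each plate scaled between vehicle and 100 µmol/L benzalkonium chloride controls, sDSS an adapted area-under-curve metric.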

Structure (SMILES) | selective drug sensitivity score 380 | selective drug sensitivity score 697 | selective drug sensitivity score (ALL-PO) | selective drug sensitivity score (COG-LL-317) | selective drug sensitivity score (COG-LL-332h) | selective drug sensitivity score (DND-41) | selective drug sensitivity score (HAL-01) | selective drug sensitivity score (HPB-ALL) | selective drug sensitivity score (JURKAT) | selective drug sensitivity score (KASUMI-10) | selective drug sensitivity score (KASUMI-2) | selective drug sensitivity score (MHH-CALL-3) | selective drug sensitivity score (MHH-CALL-4) | selective drug sensitivity score (MN-60) | selective drug sensitivity score (MOLT-14) | selective drug sensitivity score (MOLT-4) | selective drug sensitivity score (NALM-6) | selective drug sensitivity score (P30-OHKUBO) | selective drug sensitivity score (SUP-B15) | selective drug sensitivity score (TANOUE)
CCCCCOC(=O)Nc1nc(=O)n([C@@H]2O[C@H](C)[C@@H](O)[C@H]2O)cc1F [Capecitabine] (top concentration 10000 nM) | -0.06 | -0.06 | -0.06 | -0.06 | -0.06 | 1.84 | 0.44 | 0.64 | -0.06 | -0.06 | -0.06 | -0.06 | 0.04 | -0.06 | -0.06 | -0.06 | -0.06 | -0.06 | -0.06 | -0.06
CC(C)N(C[C@H]1O[C@@H](n2cnc3c(N)ncnc32)[C@H](O)[C@@H]1O)[C@H]1C[C@@H](CCc2nc3cc(C(C)(C)C)ccc3[nH]2)C1 [Pinometostat] (top concentration 1000 nM) | 0 | 0 | 0 | 0 | 0 | 0 | 0 | 0 | 0 | 0 | 0 | 0 | 0 | 0.3 | 0 | 0 | 0 | 0 | 0 | 0
CC[C@@H]1C(=O)N(C)c2cnc(Nc3ccc(C(=O)NC4CCN(C)CC4)cc3OC)nc2N1C1CCCC1 [BI-2536] (top concentration 1000 nM) | 18.3 | 17.4 | 15.9 | 21.2 | 17.4 | 15.6 | 3.64 | 18.2 | 19.2 | 11.9 | 14.1 | 7.94 | 6.94 | -0.16 | 19 | 19.6 | 13.4 | 18.3 | 22.9 | -8.46
CN1CCN(c2cc(C(=O)Nc3ccc4c(c3)-c3c(c(C(N)=O)nn3-c3ccc(F)cc3)CC4)c(Cl)cn2)CC1 [PHA-408] (top concentration 10000 nM) | 5.68 | 0.78 | 0.78 | -1.22 | 2.98 | 3.48 | 2.58 | -0.92 | 0.18 | 0.18 | 4.48 | -0.72 | 2.18 | -4.12 | -0.22 | 0.58 | 0.78 | 1.48 | 3.08 | -4.92
C[C@@H]1CN(Cc2ccc(F)cc2)[C@@H](C)CN1C(=O)c1cc2c(C(=O)C(=O)N(C)C)cn(C)c2cc1Cl [Talmapimod] (top concentration 10000 nM) | 0 | 1 | 3.2 | 0 | 0 | 0.5 | 0 | 0 | 0.9 | 0 | 0 | 0 | 0 | 0 | 0 | 0 | 0 | 0.2 | 2.8 | 0
CC[C@H](NC(=O)[C@H](C)NC)C(=O)N1C[C@@H](O)C[C@H]1Cc1c(-c2[nH]c3cc(F)ccc3c2C[C@@H]2C[C@H](O)CN2C(=O)[C@H](CC)NC(=O)[C@H](C)NC)[nH]c2cc(F)ccc12 [Birinapant] (top concentration 1000 nM) | -5.1 | -5.1 | -1.9 | -5 | 9.6 | -5.1 | -5.1 | -5.1 | -4.9 | -4.9 | 7.8 | -5.1 | 7.5 | 1.4 | -5.1 | -5.1 | -4.2 | -0.1 | -3.7 | -5.1
N#Cc1ccc2[nH]c(O)c(-c3ccc(CN4CCOCC4)cn3)c2c1 [AZD-1080] (top concentration 10000 nM) | -0.02 | 4.38 | 2.18 | 3.38 | -0.02 | -0.02 | -0.02 | -0.02 | -0.02 | 1.88 | 3.48 | 5.18 | -0.02 | -0.02 | -0.02 | -0.02 | 1.78 | 1.78 | 5.08 | -0.02
CO[C@@H](C(=O)N1Cc2[nH]nc(NC(=O)c3ccc(N4CCN(C)CC4)cc3)c2C1)c1ccccc1 [Danusertib] (top concentration 10000 nM) | 22.4 | 21.4 | 13 | 19.4 | 17.2 | -1.36 | -2.56 | 5.54 | -0.96 | 13.8 | 9.14 | 13.8 | 7.14 | -0.36 | 15.5 | 14.5 | 12.5 | 20 | 18.6 | -9.16
O=c1sn(-c2cccc3ccccc23)c(=O)n1Cc1ccccc1 [Tideglusib] (top concentration 3000 nM) | -0.3 | -0.3 | -0.3 | -0.3 | -0.3 | 3.4 | -0.3 | -0.3 | -0.3 | 0.3 | -0.3 | -0.3 | 0.9 | -0.3 | -0.3 | -0.3 | -0.3 | -0.3 | -0.3 | -0.3
O=c1[nH]c(=O)n([C@H]2C[C@H](O)[C@@H](CO)O2)cc1F [Floxuridine] (top concentration 10000 nM) | 37.9 | 35.8 | 36.5 | 32.4 | 26.1 | 21 | 23.7 | 1.12 | 18.7 | 29.7 | 33.4 | 26.3 | 22.6 | 10.3 | 27.1 | 26.6 | 24.2 | 37 | 42.4 | 2.92
C[C@@H](C(=O)O)c1ccc(-c2ccccc2)c(F)c1 [Tarenflurbil] (top concentration 10000 nM) | -0.16 | -0.16 | -0.16 | -0.16 | 4.14 | 0.54 | 4.74 | -0.16 | -0.16 | -0.16 | -0.16 | -0.16 | -0.16 | -0.16 | -0.16 | 0.14 | 3.44 | -0.16 | 0.44 | 4.74
O=C(O)c1ccc(O)c2ncccc12 [IOX-1] (top concentration 100000 nM) | 8.64 | 5.64 | 3.74 | 4.54 | 7.54 | 6.24 | 3.34 | 2.94 | 3.54 | 1.54 | 2.04 | 0.24 | 2.24 | 4.54 | 5.64 | 3.34 | 3.74 | 3.04 | 4.24 | 2.24
c1cc(CN2CCCNCCNCCCNCC2)ccc1CN1CCCNCCNCCCNCC1 [Plerixafor] (top concentration 10000 nM) | 0 | 0.7 | 0 | 0 | 0 | 0 | 0 | 0 | 0 | 0 | 0 | 0 | 0 | 0 | 0 | 0 | 0.3 | 0 | 0 | 0
O=C(c1ccc(OCCN2CCCCC2)cc1)c1c(-c2ccc(O)cc2)sc2cc(O)ccc12 [Raloxifene] (top concentration 10000 nM) | -2.28 | -0.28 | -0.38 | 0.42 | 0.92 | 4.52 | 1.82 | 5.02 | -0.58 | -2.28 | -2.28 | -2.28 | -2.28 | 1.92 | 2.92 | 1.42 | -0.88 | 1.82 | -2.18 | -1.38
CC(C)(C)NC(=O)[C@H]1CC[C@H]2[C@@H]3CC[C@H]4NC(=O)C=C[C@]4(C)[C@H]3CC[C@]12C [Finasteride] (top concentration 10000 nM) | -0.52 | -0.52 | 0.48 | -0.52 | -0.52 | 2.98 | 1.08 | 0.28 | -0.52 | -0.42 | 0.78 | -0.52 | 1.88 | -0.52 | -0.52 | -0.52 | -0.52 | -0.52 | 3.08 | -0.52
CC(C)(O)CNc1nc(Nc2ccnc(C(F)(F)F)c2)nc(-c2cccc(C(F)(F)F)n2)n1 [Enasidenib] (top concentration 10000 nM) | -0.8 | -0.2 | 2.7 | 0.8 | -0.5 | 0.4 | -0.8 | -0.5 | -0.7 | -0.8 | 4 | 0.8 | -0.8 | -0.8 | -0.8 | -0.8 | -0.8 | 1.2 | -0.3 | -0.8
CN(C)CC#Cc1ccc(OCCCc2sc(N3CCc4cccc(C(=O)Nc5nc6ccccc6s5)c4C3)nc2C(=O)O)c(F)c1 (top concentration 10000 nM) | 15.7 | -2.04 | 0.46 | 39.8 | 15.7 | 34 | 2.06 | 24.9 | 10.9 | 11 | 5.86 | 19 | 9.16 | -3.64 | 12.3 | 34.8 | 11.3 | -1.44 | 13.6 | -3.34
CC(=O)[C@]1(O)Cc2c(O)c3c(c(O)c2[C@@H](O[C@H]2C[C@H](N)[C@H](O)[C@H](C)O2)C1)C(=O)c1ccccc1C3=O [Idarubicin] (top concentration 1000 nM) | 13.7 | 8.84 | 1.64 | 13.2 | 10 | 0.34 | 7.24 | 3.14 | 3.34 | 8.14 | 11.5 | 14.6 | 7.64 | -2.26 | 10.5 | 7.74 | 7.94 | 3.94 | 9.74 | -12.6
